In the supplement of paper PMC10307832:

Assays:
Experiment in all cases: relative viability (nuclei count vs DMSO), 5 days (fraction); higher = more cells survive
[1] = compound: CCCS(=O)(=O)Nc1ccc(F)c(C(=O)c2c[nH]c3ncc(-c4ccc(Cl)cc4)cc23)c1F [Vemurafenib] + CC(=O)c1c(C)c2cnc(Nc3ccc(N4CCNCC4)cn3)nc2n(C2CCCC2)c1=O [Palbociclib] (partner 0.5 µM)
Outline: (§1)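 Relative viability was taken as the ratio of nuclei in treated wells to nuclei in vehicle wells. Lung cancer cell lines in 1536-well plates received compounds by pin tool one day after seeding, either one drug alone or a fixed anchor-drug dose plus five library-drug doses (not always all listed) in √10 steps. Nuclei were counted on 4× images after 5 days of treatment, and values are medians of duplicate plates.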

Alpelisib + Pictilisib = compound: Cc1nc(NC(=O)N2CCC[C@H]2C(N)=O)sc1-c1ccnc(C(C)(C)C(F)(F)F)c1 [Alpelisib] + CS(=O)(=O)N1CCN(Cc2cc3nc(-c4cccc5[nH]ncc45)nc(N4CCOCC4)c3s2)CC1 [Pictilisib] (partner 1 µM)
Outline: as §1

Vemurafenib + Dasatinib = compound: CCCS(=O)(=O)Nc1ccc(F)c(C(=O)c2c[nH]c3ncc(-c4ccc(Cl)cc4)cc23)c1F [Vemurafenib] + Cc1nc(Nc2ncc(C(=O)Nc3c(C)cccc3Cl)s2)cc(N2CCN(CCO)CC2)n1 [Dasatinib] (partner 0.075 µM)
Outline: as §1

Vemurafenib + Lapatinib = compound: CCCS(=O)(=O)Nc1ccc(F)c(C(=O)c2c[nH]c3ncc(-c4ccc(Cl)cc4)cc23)c1F [Vemurafenib] + CS(=O)(=O)CCNCc1ccc(-c2ccc3ncnc(Nc4ccc(OCc5cccc(F)c5)c(Cl)c4)c3c2)o1 [Lapatinib] (partner 2 µM)
Outline: as §1

Row | Cell Line | relative viability ([1]; first compound 0.03162 µM) | relative viability ([1]; first compound 0.1 µM) | relative viability ([1]; first compound 0.3162 µM) | relative viability ([1]; first compound 1 µM) | relative viability (Alpelisib + Pictilisib; first compound 0.04 µM) | relative viability (Alpelisib + Pictilisib; first compound 0.1265 µM) | relative viability (Alpelisib + Pictilisib; first compound 0.4 µM) | relative viability (Alpelisib + Pictilisib; first compound 1.265 µM) | relative viability (Alpelisib + Pictilisib; first compound 4 µM) | relative viability (Vemurafenib + Dasatinib; first compound 0.03162 µM) | relative viability (Vemurafenib + Dasatinib; first compound 0.1 µM) | relative viability (Vemurafenib + Dasatinib; first compound 0.3162 µM) | relative viability (Vemurafenib + Dasatinib; first compound 1 µM) | relative viability (Vemurafenib + Lapatinib; first compound 0.03162 µM) | relative viability (Vemurafenib + Lapatinib; first compound 0.3162 µM) | relative viability (Vemurafenib + Lapatinib; first compound 1 µM) | relative viability (Vemurafenib + Lapatinib; first compound 0.1 µM)
1 | NCI-H1666 | 0.579 | 0.699 | 0.665 | 0.641 | 0.508 | 0.459 | 0.536 | 0.479 | 0.344 | 0.741 | 0.837 | 0.644 | 0.709 | 0.581 | 0.72 | 0.654 | 
2 | NCI-H1734 | 0.344 | 0.335 | 0.343 | 0.317 | 0.472 | 0.427 | 0.494 | 0.397 | 0.343 | 0.436 | 0.474 | 0.357 | 0.432 | 0.872 | 0.903 | 0.993 | 1.04
3 | NCI-H1755 | 0.459 | 0.43 | 0.431 | 0.434 | 0.451 | 0.309 | 0.427 | 0.456 | 0.363 | 0.396 | 0.406 | 0.243 | 0.43 | 0.925 | 0.777 | 0.988 | 1.02
4 | NCI-H1792 | 0.623 | 0.581 |  | 0.643 | 0.227 | 0.306 | 0.309 | 0.253 | 0.206 | 0.84 | 0.733 |  | 0.815 | 0.819 | 0.651 | 0.959 | 0.886
5 | NCI-H1793 | 0.287 | 0.226 | 0.303 | 0.344 | 0.363 | 0.486 | 0.432 | 0.328 | 0.314 | 0.415 |  | 0.237 | 0.307 | 0.442 | 0.645 | 0.872 | 
6 | NCI-H1915 | 0.526 | 0.496 | 0.554 | 0.487 | 0.925 | 0.987 | 1.02 | 0.908 | 0.766 | 0.294 | 0.343 | 0.267 | 0.358 | 0.894 | 0.87 | 0.985 | 0.951
7 | NCI-H1944 | 0.332 |  | 0.313 | 0.385 | 0.331 | 0.386 | 0.349 | 0.344 | 0.336 | 0.198 | 0.189 | 0.192 | 0.199 | 0.818 | 0.725 | 0.789 | 0.815
8 | NCI-H1975 | 0.553 | 0.471 | 0.41 | 0.382 | 0.28 | 0.297 | 0.299 | 0.273 | 0.248 | 0.359 | 0.339 | 0.206 | 0.378 | 0.806 | 0.709 | 0.919 | 0.983
